Measurements reported in patent US10975385B2, “Methods of modulating stomata conductance and plant expression constructs for executing same” (The State of Israel, Ministry of Agriculture & Rural …, priority 2011, dated 2021).

Columns and labels:
[1] = tested on: stomata (stomatal aperture); assay: Stomatal aperture of intact leaves immersed in artificial apoplastic sap, measured on epidermal imprints; format: cell-based, tomato (Solanum lycopersicum cv. MP-1); settings: 3 h
Procedure: Stomatal aperture and density are determined using the rapid imprinting technique described by […] and Sack (2002). This approach allows to reliably score hundreds of stomata from each experiment, each of which is sampled at the same time. Light-bodied vinylpolysiloxane dental resin (Heraeus-Kulzer, Hanau, Germany) is attached to the abaxial leaf side and then removed as soon as it dries (1 min). The resin epidermal imprints are than covered with nail polish, which removed once it had dried out and serves as a mirror image of the resin imprint. The nail-polish imprints are put on glass cover slips and photographed under bright-field microscope. Stomata images are later analyzed to determine aperture size using the ImageJ software (World Wide Web (dot) rsb (dot) info (dot) nih (dot) gov/ij/) fit-ellipse tool or any other software that can process and analyze images. A microscopic ruler is used for the size calibration. Additional information can be obtained from the software such as stomata width, length, area, perimeter etc. To assess stomatal responses, leaflets are cut and immediately immerse in artificial xylem sap solution (AXS) (Wilkinson and Davies, 1997) containing 100 mM sucrose (Duchefa Biochemie) with or without 20 mM N-acetyl glucosamine (NAG, Sigma-Aldrich), 100 mM or 200 mM glucose (Duchefa Biochemie), 100 mM or 200 mM fructose (Sigma-Aldrich), 100 mM 2-deoxyglucose (Sigma-Aldrich), 10 mM or 100 mM mannose (Sigma-Aldrich), 100 mM sorbitol (Sigma-Aldrich) or 100 mM or 200 mM mannitol (Duchefa Biochemie). The sorbitol and mannitol treatments serve as non-metabolic osmotic controls. Imprints are taken 3 h after immersion and stomatal aperture is analyzed. Different plant species can be used as well as, AXS solutions, treatment solutions and different timings to our decision.

[2] = tested on: guard cells; assay: Nitric oxide production in guard cells of epidermal peels (DAF-2DA fluorescence); format: cell-based, tomato; settings: for NO production and stomatal closure in ABA-deficient mutant: Sitiens epidermal peels, 100 mM Suc or 100 μM ABA; for effect on NO levels in guard cells: 100 mM sorbitol or 20 mM NAG with 100 mM Suc
Procedure: Detection of nitric oxide (NO) levels in stomata is performed as follows: Epidermal peels are prepared and incubated in MES buffer [25 mM MES-KOH, pH=6.15 and 10 mM KCl (MES, 2-(N-morpholino)-ethane sulfonic acid; Sigma-Aldrich] with or without 20 mM NAG, for 2.5 h under steady light, and then loaded with 60 μM NO indicator dye, DAF-2DA (4, 5-diaminofluorescein diacetate; Sigma-Aldrich), diluted in MES buffer with or without 20 mM N-acetyl glucosamine (NAG, Sigma-Aldrich) and left for an additional 50 min. Then, the peels are washed with MES 3 times and re-incubated for 30 min in the buffer (control, set as 100% fluorescence) or in 100 mM sorbitol, 100 mM sucrose and 20 mM NAG. The peels are then photographed under a microscope (see Materials and Methods, “Confocal microscopy imaging”). Three to four biological repeats containing 20-30 stomata each are included in each experiment and each experiment is repeated several times. Images are analyzed using the ImageJ software histogram tool to evaluate fluorescence intensity and the fit-ellipse tool to determine stomatal aperture. It is possible to use epidermal strips from different species, use different treatments solutions and different timings, all to our decision. Images are acquired using the OLYMPUS IX 81 (Japan) inverted laser scanning confocal microscope (FLUOVIEW 500) equipped with a 488-nm argon ion laser and a 60X1.0 NA PlanApo water immersion objective. Nitric oxide- DAF-2DA (4, 5-diaminofluorescein diacetate; Sigma-Aldrich) fluorescence is excited by 488-nm light and the emission is collected using a BA 505-525 filter. GFP is excited by 488-nm light and the emission is collected using a BA 505-525 filter. A BA 660 IF emission filter is used to observe chlorophyll autofluorescence. Confocal optical sections are obtained at 0.5-μm increments. The images are color-coded green for GFP and magenta for chlorophyll autofluorescence.

OC[C@H]1O[C@@](CO)(O[C@H]2O[C@H](CO)[C@@H](O)[C@H](O)[C@H]2O)[C@@H](O)[C@@H]1O [Suc, sucrose]
effect on stomatal aperture of AtHXK1-expressing plants ([1]; HK4 leaves, 100 mM Suc): caused the stomata to close even further
decrease of stomatal aperture size relative to sorbitol ([1]; WT tomato leaflets, 100 mM Suc vs 100 mM sorbitol): 29%
effect on guard-cell fluorescence of AtHXK1-expressing line ([2]; HK4 epidermal peels, Suc added): even more intense fluorescence
NO production and stomatal closure in ABA-deficient mutant ([2]; 30 min): did not result in any increase in fluorescence or stomatal closure
increase in guard-cell fluorescence (NO levels) ([2]; WT epidermal peels, 100 mM, 30 min): 3.5 fold

CC1=CC(=O)CC(C)(C)[C@@]1(O)/C=C/C(C)=C\C(=O)O [ABA, abscisic acid]
NO production and stomatal closure in ABA-deficient mutant ([2]; 30 min): did trigger the production of NO

CC(=O)N[C@H]1C(O)O[C@H](CO)[C@@H](O)[C@@H]1O (stereo partly drawn) [NAG, N-acetyl glucosamine]
effect on Suc-induced stomatal closure of AtHXK1-expressing plants ([1]; HK4 leaves, 100 mM Suc with 20 mM NAG): abolished the closing effect of Suc
effect on Suc-induced stomatal closure ([1]; WT leaves, 100 mM Suc with 20 mM NAG): almost completely abolished the effect of Suc and prevented stomatal closure
time to resumption of NO production after washing out NAG ([2]; NAG washed out with 100 mM Suc): less than 30 min
effect on NO levels in guard cells ([2]; WT epidermal peels, 30 min): prevented the production of NO

O=CC[C@@H](O)[C@H](O)[C@H](O)CO [2-dG, 2-deoxyglucose]
effect on stomatal aperture ([1]; WT leaves, vs mannitol osmotic control): reduced stomatal aperture

OC[C@@H](O)[C@@H](O)[C@H](O)[C@@H](O)CO [sorbitol]
effect on NO levels in guard cells ([2]; WT epidermal peels, 30 min): had no effect on NO levels
